Assay results: ChEMBL document CHEMBL3608235, “Pyrroloaryls and pyrroloheteroaryls: Inhibitors of the HIV fusion/attachment, reverse transcriptase and integrase” (Bioorg Med Chem, 2015)

Assays:
[1] = Selectivity index, ratio of CC50 for mock-infected human MT4 cells to EC50 for HIV1 infected in human MT4 cells; assay type: toxicity, cell-based; conditions: MT4 cells (mock-infected and HIV1-infected), read-out: Ratio CC50/EC50
[2] = Selectivity index, ratio of IC50 for human CEM-SS cells to EC50 for HIV1 infected in human CEM-SS cells; assay type: toxicity, cell-based; conditions: CEM-SS cells (uninfected and HIV1-infected), read-out: Ratio IC50/EC50
[3] = Selectivity index, ratio of IC50 for human C8166 cells to EC50 for HIV1 3B infected in human C8166 cells; assay type: toxicity, cell-based; conditions: C8166 cells (uninfected and HIV1 3B-infected), read-out: Ratio IC50/EC50
C8166 = experiment: Cytotoxicity against human C8166 cells; assay type: cell-based; conditions: Homo sapiens, C8166
[4] = system: Human immunodeficiency virus 1; experiment: Antiviral activity against HIV1 3B infected in human C8166 cells assessed as inhibition of virus replication; assay type: functional, organism-based; conditions: Human immunodeficiency virus 1, 3B
[5] = system: Human immunodeficiency virus 1; experiment: Antiviral activity against CXCR4-tropic HIV1 LAI infected in human MT2 cells by monogram phenosense entry assay; assay type: functional, organism-based; conditions: Human immunodeficiency virus 1, LAI
[6] = system: Human immunodeficiency virus 1; experiment: Antiviral activity against CXCR4-tropic HIV1 NL4-3 infected in human MT2 cells by monogram phenosense entry assay; assay type: functional, organism-based; conditions: Human immunodeficiency virus 1, NL4-3, MT2
[7] = system: Human immunodeficiency virus 1; experiment: Antiviral activity against CXCR4-tropic HIV1 MN infected in human MT2 cells by monogram phenosense entry assay; assay type: functional, organism-based; conditions: Human immunodeficiency virus 1, MN
[8] = system: Human immunodeficiency virus 1; experiment: Antiviral activity against CXCR4-tropic HIV1 3B infected in human MT2 cells by monogram phenosense entry assay; assay type: functional, organism-based; conditions: Human immunodeficiency virus 1, 3B
[9] = system: Human immunodeficiency virus 1; experiment: Antiviral activity against CCR5-tropic HIV1 JRFL infected in human PM1 cells by monogram phenosense entry assay; assay type: functional, organism-based; conditions: Human immunodeficiency virus 1, JRFL
[10] = system: Human immunodeficiency virus 1; experiment: Antiviral activity against CCR5-tropic HIV1 SF162 infected in human PM1 cells by monogram phenosense entry assay; assay type: functional, organism-based; conditions: Human immunodeficiency virus 1, SF162, PM1
[11] = system: Human immunodeficiency virus 1; experiment: Antiviral activity against CCR5-tropic HIV1 BAL infected in human PM1 cells by monogram phenosense entry assay; assay type: functional, organism-based; conditions: Human immunodeficiency virus 1, BAL

EC50 [4] [nM] | Compound | selectivity ratio [1] | selectivity ratio [2] | selectivity ratio [3] | IC50 (C8166) [nM] | EC50 [5] [nM] | EC50 [6] [nM] | EC50 [7] [nM] | EC50 [8] [nM] | EC50 [9] [nM] | EC50 [10] [nM] | EC50 [11] [nM]
– | Cc1ccnc2c1NC(=O)c1cccnc1N2C1CC1 [NEVIRAPINE] | > 800 | 525 | > 250 | – | – | – | – | – | – | – | –
33 | CCC1(c2cccc(OC)c2)Oc2ccccc2-n2cccc2C1=O (stereo not drawn) | – | – | 212 | 7000 | – | – | – | – | – | – | –
– | COc1cnc(-n2cnc(C)n2)c2[nH]cc(C(=O)C(=O)N3CCN(C(=O)c4ccccc4)CC3)c12 [TEMSAVIR] | – | – | – | – | 0.7 | 2.2 | 14.8 | 16.2 | 0.4 | 0.5 | 1.7
